Data set [1] has as its system A549 cells. In words: MTT cytotoxicity assay against A549 non-small-cell lung cancer cells. The class given is cell-based. As to conditions: for IC50: Homo sapiens, A549. As to the method:
(§1) The cytotoxicity of DK and its various acyl and alkyl derivatives was assessed using the MTT assay against a non-small-lung cancer cell line (A549) and a normal cell line (NIH/3T3) at […] different concentrations (0, 0.005, 0.05, 0.5, 5, 50 and 500 μM). Among the newly synthesized acyl derivatives, the 6-O-acetyl (2) and 6-O-benzoyl (3) derivatives were included in this study, while the 6-O-propionyl (4) and 6-O-toluoyl (5) derivatives, which had been considered to be very similar to 6-O-acetyl (2) and 6-O-benzoyl (3) derivatives, respectively, were excluded from this study. […] The methyl and benzyl derivatives (6 and 7) were selected in parallel with acetyl and benzoyl (2 and 3) derivatives, respectively, to identify any impact of substitution chemistry (via sp^2 vs. sp^3 carbon in acylations and alkylations, respectively) and steric effect in cytotoxicity. Methoxymethyl (8), 3-(ethoxycarbonyl)propyl (9) and hydroxypropyl (10) derivatives were selected to determine the size effect of moderately polar substituents with a common heteroatom such as oxygen.
(§2) The non-small-cell lung cancer cell line A549 and the normal cell line NIH/3T3 were purchased from Korea Cell Line Research Foundation (Seoul, Korea). The cell lines were cultured in Dulbecco’s modified Eagle’s medium (DMEM) supplemented with 10% FBS and 1% penicillin–streptomycin at 37 °C with 5% CO2.
The cytotoxicity of DK and its derivatives was assessed by MTT assay, based on the reduction of MTT into insoluble formazan crystals by metabolically active cells. Briefly, the cells ([…]) were seeded in each well containing culture medium in a 96-well plate. After the incubation for 24 h at 37 °C, various concentrations of DK and its derivatives were added. After 24 h, 10 μL of the MTT reagent ([…]) was added, and the plates were incubated for an additional 2 h. The medium was discarded, and the formazan blue, which was formed in the cells, was dissolved in […] of dimethyl sulfoxide (DMSO). The optical density was measured at 540 nm using a microplate spectrophotometer (Epoch; Agilent Technologies, Inc. Santa Clara, CA, USA). The IC50 corresponded to a 50% decrease in the number of cells compared to the untreated control. The results are represented as the mean of three independent experiments. The IC50 values of DK and its derivatives were determined for the different cell lines by nonlinear regression using GraphPad Prism v6.0 software (La Jolla, CA, USA).
A general note: Tetrazolium dyes change colour on reduction, which living cells bring about.

Data set [2] is described as follows: MTT cytotoxicity assay against normal cell line NIH/3T3. In kind it is cell-based. As to conditions: mouse, NIH/3T3 normal cells, 24 h treatment, 0-500 μM, mean ± SD. As to the method: as §1, §2
(§3) The cytotoxicity of DK and its derivatives was assessed by MTT assay, based on the reduction of MTT into insoluble formazan crystals by metabolically active cells. Briefly, the cells ([…]) were seeded in each well containing culture medium in a 96-well plate. After the incubation for 24 h at 37 °C, various concentrations of DK and its derivatives were added. […] The optical density was measured at 540 nm using a microplate spectrophotometer (Epoch; Agilent Technologies, Inc. Santa Clara, CA, USA). […] The IC50 values of DK and its derivatives were determined for the different cell lines by nonlinear regression using GraphPad Prism v6.0 software (La Jolla, CA, USA).

Data set [3] concerns NSCLC (A549) cells vs. normal (NIH/3T3) cells. In words: Selectivity index, cytotoxicity A549 vs. NIH/3T3. To be noted: SI = IC50 (NIH/3T3 cells)/IC50 (A549 cells). The class given is cell-based. From the text: The ideal anticancer drug should have a relatively high toxic concentration on normal cells with a very low active concentration on cancer cells. In this study, the cancer-selective cytotoxicity of DK derivatives has been studied for the first time. To address this selectivity issue, the selectivity index (SI), which is defined as the ratio of the toxic concentration of a sample against its effective bioactive concentration according to Equation (1) (see Section 4.7), was used. […] An SI value ≥ 10 was assumed to belong to a selected potential sample that can be further investigated. Therefore, the acetyl and hydroxypropyl DKs would be highly considered for further investigations as potential anti-NSCLC chemotherapeutic agents.
The selectivity index (SI) was determined to assess the selective cytotoxicity of the DK derivatives against NSCLC (A549) cells vs. normal (NIH/3T3) cells based on Equation (1):SI = IC50 (NIH/3T3 cells)/IC50 (A549 cells)(1)

The test system of data set [4] is NIH/3T3 cells. In words: MTT cytotoxicity assay against normal cell line NIH/3T3. The class given is cell-based. As to conditions: 24 h treatment, 0-500 μM, mean ± SD, listed as DK. Here is the method: as §1, §2, §3
Details of data set [5]: method as in PMID 35542614. To be noted: estimated; cited from earlier work.
Setting [6] is: MTT, 24 h treatment, 0-500 μM, mean ± SD.

Regarding `CC(=O)Oc1cc(O)cc2c1Oc1c(Oc3cc(O)c(Oc4cc(O)c5c(c4)Oc4c(O)cc(O)c(Oc6cc(O)cc(O)c6)c4O5)c(O)c3)c(O)cc(O)c1O2` [compound 2, 6-O-acetyl dieckol], the “times higher activity than 6-O-benzyl DK” value in data set [1] (A549 cells) worked out at 120 times. In data set [1] (setting [6]), the IC50 (commonly the midpoint of a concentration-inhibition curve) is 7.02 ± 1.53 µM. The same molecule displayed an IC50 at 24 h in data set [2] of 481 µM. For the same molecule, in data set [3], the “SI Value (selectivity index)” value turned out to be 68.58.

`OCCCOc1cc(O)cc2c1Oc1c(Oc3cc(O)c(Oc4cc(O)c5c(c4)Oc4c(O)cc(O)c(Oc6cc(O)cc(O)c6)c4O5)c(O)c3)c(O)cc(O)c1O2` [compound 10] had an IC50 in data set [1] (setting [6]) of 13.1 ± 5.06 µM. Also, it took 563 ± 51.8 µM to reach half-maximal inhibition in data set [2] (IC50 at 24 h). Also, the “SI Value (selectivity index)” value in data set [3] is recorded as 43.07.

For the molecule `Oc1cc(O)cc(Oc2c(O)cc(O)c3c2Oc2c(O)cc(Oc4c(O)cc(Oc5c(O)cc(O)c6c5Oc5c(O)cc(O)cc5O6)cc4O)cc2O3)c1` [compound 1, Dieckol], the “Cytotoxicity (IC50) A549” value in data set [1] (MTT, 24 h treatment, 0-500 μM, mean ± SD, listed as DK) is given as “did not show detectable cytotoxicity”. The “Cytotoxicity (IC50) NIH/3T3” value in data set [4] is on record as “did not show detectable cytotoxicity”. In data set [5], the “lowest pKa” value was 5.0.

Regarding `O=C(Oc1cc(O)cc2c1Oc1c(Oc3cc(O)c(Oc4cc(O)c5c(c4)Oc4c(O)cc(O)c(Oc6cc(O)cc(O)c6)c4O5)c(O)c3)c(O)cc(O)c1O2)c1ccccc1` [compound 3, 6-O-benzoyl dieckol], the “fold increase in IC50 compared with acetyl DK” value in data set [1] (A549 cells) came out at 91 fold. Also, the IC50 in data set [1] (setting [6]) was 641 ± 17.9 µM.

The values are drawn from publication PMC9695823, “Regioselective Synthesis of 6-O-Acetyl Dieckol and Its Selective Cytotoxicity against Non-Small-Cell Lung Cancer Cells” (Marine Drugs, 2022).
